Experimental data published in ChEMBL document CHEMBL1149205, “Biological evaluation of substituted quinolines” (Bioorg Med Chem Lett, 2004).

What was measured:
[1] = test system: Human T-cell leukemia virus type I; experiment: Inhibitory activity against proliferation of HTLV-1 transformed cell lines (HUT-102) at 10 uM; type: functional; conditions: Primate T-lymphotropic virus 1, HuT-102
[2] = test system: Leishmania infantum; experiment: In vitro anti protozoal activity against Leishmania infantum strain MHOM-ET-67/L82 was determined; type: functional, organism-based
[3] = test system: Leishmania amazonensis; experiment: In vitro anti protozoal activity against Leishmania amazonensis strain MHOM/ET/L82/LV9 was determined; type: functional, organism-based
[4] = test system: MRC5; experiment: Cytotoxicity in MRC-5 cells; type: functional, cell-based; conditions: Homo sapiens
[5] = organism: Homo sapiens; experiment: Cytotoxicity in macrophages; type: functional
[6] = test system: Plasmodium falciparum; experiment: In vitro anti-protozoal activity against Plasmodium falciparum Ghana strain; type: functional, organism-based
[7] = test system: Plasmodium falciparum; experiment: In vitro anti-protozoal activity against Plasmodium falciparum W2; type: functional, organism-based
[8] = test system: Trypanosoma cruzi; experiment: In vitro anti protozoal activity against Trypanosoma cruzi strain Tulahuen CL2 was determined; type: functional, organism-based
[9] = test system: Trypanosoma brucei; experiment: In vitro anti protozoal activity against Trypanosoma brucei strain S427 was determined; type: functional, organism-based

Compound | inhibition at 10 µM [1] | IC50 ([2]; Leishmania infantum) | IC50 [3] | IC50 [4] | IC50 [5] | IC50 [6] | IC50 [7] | IC50 [8] | IC50 [9] | IC50 [2]
O=[N+]([O-])c1ccc(/C=C/c2ccc3ccccc3n2)cc1 | 0% | > 32 µM | > 32 µM | > 32 µM | > 32 µM | > 32 µM | > 32 µM | 28 µM | > 32 µM | 
Br/C=C/c1ccc2ccccc2n1 |  | 2 µM | 3 µM | > 32 µM | 13 µM | > 32 µM |  | 0.15 µM | 1 µM | 
CN(C)c1ccc(/C=C/c2ccc3ccccc3n2)cc1 | 26% | > 32 µM | 16 µM | > 32 µM | 16 µM | > 32 µM | > 32 µM | 17 µM | 6 µM | 
COc1cc(NCc2ccc3ccccc3n2)cc(OC)c1OC | 0% | > 32 µM | > 32 µM | > 32 µM | > 32 µM | > 32 µM | > 32 µM | > 32 µM | > 32 µM | 
COc1ccc(/C=C/c2ccc3ccccc3n2)cc1OC | 0% | 22 µM | > 32 µM | > 32 µM | > 32 µM | > 32 µM | > 32 µM | > 32 µM | 26 µM | 
COc1ccc(/C=C/c2ccc3ccccc3n2)c(OC)c1 | 0% | > 32 µM | > 32 µM | > 32 µM | > 32 µM | > 32 µM | 30 µM | > 32 µM | 18 µM | 
O=[N+]([O-])c1ccc(C(O)Cc2ccc3ccccc3n2)cc1 (centres undefined) | 10% | > 32 µM | > 32 µM | > 32 µM | > 32 µM | 15 µM | 6 µM | > 32 µM | > 32 µM | 
O=C(/C=C/c1ccc2ccccc2n1)N1CCOCC1 | 0% | 18 µM | > 32 µM | > 32 µM | > 32 µM | 12 µM | 16 µM | 13 µM | > 32 µM | 
O=C(/C=C/c1ccc2ccccc2n1)N1CCCCC1 | 0% | 16 µM | 18 µM | > 32 µM | > 32 µM | 15 µM | 17 µM | 17 µM | > 32 µM | 
CN1CCN(C(=O)/C=C/c2ccc3ccccc3n2)CC1 | 0% | > 32 µM | > 32 µM | > 32 µM | > 32 µM | > 32 µM | > 32 µM | > 32 µM | > 32 µM | 
O=[N+]([O-])/C=C/c1ccc2ccccc2n1 | 76% | > 8 µM | > 32 µM | 22 µM | > 32 µM | 16 µM | 14 µM | 1 µM | 18 µM | 
Fc1ccc(/C=C/c2ccc3ccccc3n2)cc1 | 26% | > 32 µM | > 32 µM | > 32 µM | > 32 µM | > 32 µM | > 32 µM | 22 µM | > 32 µM | 
CN(C)c1ccc(C(O)Cc2ccc3ccccc3n2)cc1 (centres undefined) | 0% | > 32 µM | > 32 µM | > 32 µM | > 32 µM | > 32 µM | > 32 µM | > 32 µM | > 32 µM | 
COc1ccc(C(O)Cc2ccc3ccccc3n2)cc1OC (centres undefined) | 0% | > 32 µM | > 32 µM | > 32 µM | > 32 µM | > 32 µM | > 32 µM | > 32 µM | > 32 µM | 
OC(Cc1ccc2ccccc2n1)c1ccc(F)cc1 (centres undefined) | 0% | > 32 µM | > 32 µM | > 32 µM | > 32 µM | 4 µM | 1 µM | > 32 µM | > 32 µM | 
Fc1ccccc1NCc1ccc2ccccc2n1 | 0% | > 32 µM | > 32 µM | > 32 µM | > 32 µM | > 32 µM | > 32 µM | > 32 µM | > 32 µM | 
OC(Cc1ccc2ccccc2n1)c1ccco1 (centres undefined) | 0% | > 32 µM | > 32 µM | > 32 µM | > 32 µM | > 32 µM | > 32 µM | > 32 µM | > 32 µM | 
O=C/C=C/c1ccc2ccccc2n1 | 34% | 2 µM | 4 µM | 16 µM | 9 µM | 31 µM |  | 5 µM | 19 µM | 
CCCCCCCCCCCCCCCCOP(=O)([O-])OCC[N+](C)(C)C [MILTEFOSINE] |  |  | 3.12 µM |  | 12.5 µM |  |  |  |  | 
CC1CS(=O)(=O)CCN1/N=C/c1ccc([N+](=O)[O-])o1 (centres undefined) [NIFURTIMOX] |  |  |  |  |  |  |  | 0.45 µM |  | 
Cc1ccc(C(=O)Nc2ccc(S(=O)(=O)O)c3cc(S(=O)(=O)O)cc(S(=O)(=O)O)c23)cc1NC(=O)c1cccc(NC(=O)Nc2cccc(C(=O)Nc3cc(C(=O)Nc4ccc(S(=O)(=O)O)c5cc(S(=O)(=O)O)cc(S(=O)(=O)O)c45)ccc3C)c2)c1 [SURAMIN] |  |  |  |  |  |  |  |  | 0.09 µM | 
MEGLUMINE ANTIMONATE |  |  |  |  |  |  |  |  |  | 7.15 µM
